{
  "source": "patent US8993254B2",
  "about": "“Methods for evaluating risk of mother's milk or food inducing an onset of atopic dermatitis, and mother's milk or food with reduced risk of inducing an onset of atopic dermatitis” (Saitama Medical University, priority 2009, dated 2015)",
  "key": {"[1]": {"tested_on": "Human monocyte-derived dendritic cells (Mo-DCs)", "assay": "Analysis of T cell-differentiation using dendritic cells (mixed lymphocyte reaction, IFNγ and IL-5 ELISA)", "format": "cell-based", "details": "Mo-DCs pretreated with 1 μg/ml of coenzyme A (FIG. 3B)", "description": "Human Mo-DCs and CD45RA-positive naive T cells (purity of more than 99%) were prepared according to the previous report (Takagi, R. et al., J Immunol 181: 186-189, 2008).\nThe immature Mo-DCs were stimulated with 1 to 10% of a liquid fraction of mother's milk or 0 to 10 μg/ml of coenzyme A. Two days after culturing with the liquid fraction or coenzyme A, to induce a mixed lymphocyte reaction (MLR), the cell component was further cultured together with HLA-DR-nonshared allogenic CD4-positive naive T cells in an RPMI1640 medium supplemented with 10% human serum for 6 to 8 days. Then, the T cells were restimulated with an anti-CD3 antibody and an anti-CD28 antibody (BD Pharmingen Inc.). After 48 hours, the culture supernatant was collected to analyze IFNγ and IL-5 by ELISA using IFNγ and IL-5 ELISA kits (R&D systems, Inc.)."}, "THP-1 cells": {"tested_on": "THP-1 cells", "assay": "Measurement of intracellular cAMP concentration in PMA-treated THP-1 cells", "format": "cell-based", "details": "THP-1 cells treated with PMA, co-incubated with 10 to 30 μg/ml (13 to 39 μM) of coenzyme A", "description": "In a humid incubator under conditions of 37° C. and 5% CO2, THP-1 cells were cultured in an RPMI1640 medium supplemented with 10% fetal bovine serum, 1% penicillin and streptomycin, and 1% L-glutamine. The THP-1 cells were exposed to 50 ng/ml of PMA (phorbol 12-myristate 13-acetate) for 48 hours, followed by washing. Then, the cells were cultured at 37° C. in the presence of 1 mM 3-isobutyl-1-methyl-xanthine. After 10 minutes, the cells were stimulated with 30% mother's milk (AD: n=55, non-AD: n=55) for 10 minutes, and lysed with cell lysis buffer (Molecular Devices). In some experiments, THP-1 cells treated with 50 ng/ml of PMA for 48 hours were exposed to 10 μM prostaglandin E2 (PGE2). The intracellular cAMP level was measured using CatchPoint™ cyclicAMP fluorescent assay kit (Molecular Devices LLC) in accordance with the maker instruction. In some experiments, delta (Δ)-cAMP was calculated by subtracting the cAMP concentration in THP-1 stimulated with PMA without adjuvant stimulation from the cAMP concentration in THP-1 stimulated with PMA with adjuvant stimulation."}, "SJL/J mice": {"tested_on": "SJL/J mice", "assay": "Mixed lymphocyte reaction using CD3ε-negative cells harvested from mice to which coenzyme A had been orally administered", "format": "in vivo", "description": "SJL/J mice (H-2^s) and Nc/Nga mice (non H-2^s) were purchased from Charles River Inc. and Japan SLC, Inc., respectively. 50 μg/ml of coenzyme A was orally administered to the SJL/J mice. Two days later, CD3ε-negative cells were obtained from mesenteric lymph node cells using “[…]” (Miltenyi Biotec Inc.). On the same day, CD62L-positive naive CD4-positive T cells were obtained from the spleens of the Nc/Nga mice using “CD4^+ T cell isolation kit” and “CD62L^+ T cell isolation kit” (Miltenyi Biotec Inc.). Then, 1×10^4 CD3ε-negative cells and 1×10^5 allogenic CD62L-positive naive CD4-positive T cells were co-cultured in a 96-well flat-bottomed culture plate. A mixed lymphocyte reaction (MLR) was induced in an RPMI1640 medium supplemented with 10% FCS for 7 days. Next, the T cells were restimulated with an anti-CD3 antibody and an anti-CD28 antibody (Biolegends, Inc.). The culture supernatant were harvested 16 hours later, and analyzed for IFNγ, IL-4, and\nIL-5 using IFNγ, IL-4 and IL-5 ELISA kits (R&D systems, Inc.).\nCoenzyme A-containing drinking water (10 to 20 μg/kg/day) was orally administered to mice. […] cells were isolated from the mesenteric lymph node 2 days after the coenzyme A administration, and co-cultured with allogenic CD62L-positive naive CD4-positive T cells."}, "[2]": {"details": "oral, drinking water 10 to 20 μg/kg/day, mesenteric lymph node cells isolated 2 days after administration (FIG. 4A)"}, "[3]": {"details": "treated mice, oral 10 to 20 μg/kg/day (FIG. 4B)"}},
  "data": [
    {"smiles": "CC(C)(COP(=O)(O)OP(=O)(O)OC[C@H]1O[C@@H](n2cnc3c(N)ncnc32)[C@H](O)[C@@H]1OP(=O)(O)O)[C@@H](O)C(=O)NCCC(=O)NCCS", "note": "[coenzyme A]", "values": [
      {"measurement": "differentiation of allogenic naive CD4-positive T cells into Th2 cells", "setting": "[1]", "result": "differentiated into Th2 cells"},
      {"measurement": "intracellular cAMP", "setting": "THP-1 cells", "result": "elevated"},
      {"measurement": "IFNγ production in T cells (MLR)", "setting": "SJL/J mice; [2]", "result": "No statistically significant difference"},
      {"measurement": "IL-4 production in T cells (MLR)", "setting": "SJL/J mice; [2]", "result": "significantly induced"},
      {"measurement": "IL-5 production in T cells (MLR)", "setting": "SJL/J mice; [2]", "result": "significantly induced"},
      {"measurement": "IL-4/IFNγ ratio", "setting": "SJL/J mice; [3]", "result": "significantly high"},
      {"measurement": "IL-5/IFN ratio", "setting": "SJL/J mice; [3]", "result": "significantly high"}
    ]}
  ]
}
